Laboratory results: a melting point compilation (Tetko et al.; mined from patent text by program, amines drawn as free bases though some values may be those of a salt)

SMILES	melting point [°C]
CC(=O)c1ccccc1NC(c1c(Cl)cccc1Cl)C1CC1 (centres undefined)	116
Cc1cccc(C(=O)n2c3c(c4ccccc42)CC(C(=O)O)CC3)c1 (centres undefined)	180 to 182
COC(=O)c1sccc1S(=O)(=O)NC(=O)Nc1nc(C)cc(OC)n1	165 to 173
CC(=O)OC1=C(c2ccc(C)cc2)Sc2cc(C)ccc2NC1=O	233 to 235
Cn1c2c(c(=O)n3nc(-c4ccccc4)cc13)CN(C1CCCCC1)C2=O	276 to 279
CCS(=O)(=O)NC1CCCCc2ccc(F)cc21 (centres undefined)	118 to 121
Cc1nc(N2CCN(Cc3ccccc3)C2=NC#N)sc1C(=O)NCc1ccccc1	226 to 228
CCOC(=O)c1c(C(C)C)nc(-c2ccccc2)c(C(C)C)c1-c1ccc(F)cc1	138 to 140
CC(C)C(NC(=O)c1ccc(C(=O)NCc2ccc([N+](=O)[O-])cc2)cc1)C(=O)N1CCCC1C(=O)NC(C(=O)C(F)(F)F)C(C)C (mixture of isomers)	94 to 96
Oc1ccc([C@@H]2C[C@H]2c2ccccc2)cc1 (relative stereo)	78 to 79
O=C(O)CCS(=O)CCC(=O)O	114
COC(Cc1ccc(OCCc2nc(C(C)(C)C)oc2C)c2ccsc12)C(=O)O (centres undefined)	163 to 165
Cn1cc(Br)c(-c2cccc(NC(=O)Cc3ccc(OC(F)(F)F)cc3)c2)n1	141 to 142
CCOc1nn(Cc2ccc(OCc3csc(-c4ccccc4)n3)cc2)cc1CCC(=O)O	114 to 115
Cn1cncc1-c1nc(-c2cccc(Cl)c2)c2cc(C(O)(c3ccc(Cl)cc3)c3cncn3C)ccc2n1 (centres undefined)	160
O=C1CC2CCCC(CC(=O)OCc3ccccc3)C2N1 (centres undefined)	89 to 90
CCNS(=O)(=O)c1cccc(NC(=O)c2cnn3c(C(F)F)cc(-c4ccc(C(F)(F)F)c(OCC)c4)nc23)c1	222
Clc1ccc2c(c1)CNC2	49 to 50
O=CC1CC(O)c2ccccc2C1O (centres undefined)	145
Cc1cc2c(cc1C1=NNC(=O)CC1)NC(=O)C(C)O2 (centres undefined)	252 to 254
COc1cc(OC)cc(\C(C)=C/C=C/C(C)=C/C(=O)Nc2ccc(O)cc2)c1	162 to 163
COc1ccc(-n2c(-c3cccnc3)nc(SC)c(C#N)c2=O)cc1	230 to 233
COc1ccc(-c2nnc3c4ccccc4c(OCCCCO)nn23)cc1	180 to 182

SMILES	melting point [°C]
Cc1ccc(S(=O)(=O)N=c2[nH]c3ccccc3s2)cc1	246 to 249
COc1ccc2ccc(NC(=O)c3ccco3)nc2n1	201
CCOC(=O)C(C)(C)Oc1ccc(C(=O)c2ccccc2)cc1	82 to 85
CCCCN(CCCCCCCCSc1nc(-c2ccccc2)c(-c2ccccc2)[nH]1)C(=O)Nc1ccc(F)cc1F	114 to 115
CCOC(=O)C1=C(C)N(C)C(C)=C(C(=O)OC)C1c1ccccc1C#N (centres undefined)	175
CCOC(=O)c1c[nH]c2nc(N3CCC(N)C3)c(F)cc2c1=O (centres undefined)	139 to 141
Cc1c(SCCN2CCOCC2)ccnc1CSc1nc2ccccc2[nH]1	201 to 203
Nc1c(-c2ccc(-c3ccccc3)cc2)nc2ccc(Cl)cc2c1C(=O)O	244 to 245
COC(=O)c1sc(-c2ccc(C)cc2)cc1NC(C)=O	127 to 129
Cc1cc(OCC(=O)NCCO[N+](=O)[O-])no1	93 to 94
CC(C)[C@H](OCc1ccccc1)[C@H]1[C@H]([N+](=O)[O-])[C@H](C(C)(C)C)N[C@@H]1C(=O)NCC(=O)O	119 to 120
C#CCn1c2ccc(Br)cc2c2cc(Br)ccc21	193 to 194
COc1cc(C)c(C(=O)c2c(Cl)cccc2Cl)cc1Br	159
CCN1c2ncc(COc3cccc(C(=O)O)c3)cc2C(=O)N(C)c2ccc(Cl)nc21	181 to 182
COC1=C(OC)C(=O)C2=C(CCC(CCOc3ccc(C)cc3)CC2)C1=O	56 to 57
COc1ccc(-c2cc3cc(C4=NNC(=O)CC4)ccc3[nH]2)cc1	262 to 264
O=C1c2ccccc2S(=O)(=O)N1CCCCOc1ccccc1	92 to 94
CC(CC(=O)O)CC(=O)Nc1ccc(Cl)cc1 (centres undefined)	116 to 118
N=C(C1=C(O)C(=O)c2ccccc2C1=O)c1ccccc1	258 to 259
CC1=CC(=O)C=C2CCC3C4CCC(=O)C4(C)CCC3C12C (centres undefined)	165 to 167
O=C1Nc2c(ccc3c2CCNC3)C1=O	270
CCC(c1oc2ccccc2c(=O)c1-c1cccc(F)c1)n1nc(-c2ccc3c(C)n[nH]c3c2)c2c(N)ncnc21 (centres undefined)	268 to 270
CC(=O)N1CCC(=O)C(C(c2ccc(C)cc2)c2ccc(C)cc2)C1 (centres undefined)	142 to 144

SMILES	melting point [°C]
Cc1ccc(C2CCN(C(=O)Nc3ccc4cc(CN5CCCCC5)ccc4c3)CC2)cc1	227 to 228
COC(=O)c1ccc(-c2ccc(-c3ccccc3)c(-c3ccc4c(c3)C(C)(C)CCC4(C)C)c2)cn1	160 to 162
O=S(=O)(NCCCCCCNc1nsc2nccn12)c1cccc2ccccc12	95 to 97
O=C(Nc1ccc2ccc(Oc3ccccc3)nc2n1)c1ccsc1	95
NC(=O)C(N)c1ccc(Cl)cc1Cl (centres undefined)	114
O=C(O)CNC1CCc2ccccc21 (centres undefined)	184 to 186
CC(Cc1c[nH]c2ccccc12)(NC(=O)OC1C2CC3CC(C2)CC1C3)C(=O)NC1(C(=O)O)CCCCC1 (centres undefined)	203 to 208
O=C1CN(c2ccccc2)C(=O)N1C(=O)c1ccccc1Cl	184 to 185
CCOC(=O)Cc1ncn(C(c2ccccc2)(c2ccccc2)c2ccccc2)n1	117 to 119
Cc1ccc(C2=N[C@H](c3ccccc3)CO2)cc1C#CCN(O)C(N)=O	169 to 170
C=CCc1cc(C=CC(=O)O)ccc1OC(C)=O	143 to 144
CCCCCCCCCCCCCCCCCCOc1ccc(OCCCOc2ccc(OCc3ccccc3)cc2)c(C(=O)O)c1	92 to 95
O=C(NCc1ccccc1)c1ccccc1-c1ccccc1CNS(=O)(=O)c1cccc([N+](=O)[O-])c1	175
CC(C(=O)O)c1ccc(-c2ccc(OCc3nc4ccccc4s3)cc2)cc1 (centres undefined)	199 to 200
CC(O)(CCC#N)c1ccc(Oc2ccc(Cl)cc2)cc1 (centres undefined)	68 to 70
O=C1Nc2ccccc2N2C1CCC2c1cccc(Cl)c1 (centres undefined)	210
Cn1cc(C(=O)O)c(=O)c2cc3cc(F)c(N4CCNC(c5ccc(OCCO)cc5)C4)cc3nc21 (racemic)	276
COC(=O)CCNC(=O)C(=Cc1ccccc1)CSC(C)=O	54
COC(=O)C(C)c1ccc(OCCNC(=O)C2Cc3ccccc3N2S(=O)(=O)c2ccc(-c3cc(C(F)(F)F)ccc3Cl)cc2)cc1 (centres undefined)	55 to 63
CCCCCC(=O)CCn1ccnc1	104 to 106
CS(=O)(=O)c1ccnc(Oc2ccccc2)n1	86 to 87
COc1ccc(-c2ccc3c(c2)C=C(C(=O)Nc2ccc(CN(C)C4CCC5(CC4)OCCO5)cc2)CCS3(=O)=O)cc1	222 to 228
CSC(=C[N+](=O)[O-])NCCCCc1csc(N(CC(F)(F)F)C(=N)N)n1	140 to 141
